Assays:
cIAP-1 = biological target: T1, cIAP-1 (Homo sapiens, UniProt Q13490); test: cIAP degradation assay (GFP-cIAP-1); type: cell-based; conditions: for DC50: A375Gc1 cells, 2 h treatment, 50% of GFP signal inhibited (FACS), read-out: GFP-cIAP-1 IC50; for IC50 Ratio cIAP-2/cIAP-1: ratio of GFP-cIAP-2 to GFP-cIAP-1 degradation IC50
T1 construct: expressed in transfected cells; host or cells: A375 (A375Gc1)
Protocol: (§1) Briefly, A375 cell lines expressing GFP-tagged cIAP-1 and cIAP-2 were generated by transfecting HA2xEGFP-pcDNA3 vector containing either cIAP-1 (A375Gc1) or cIAP-2 (A375Gc2) coding region. 2×10^4 of A375Gc1 or A375Gc2 cells were grown in 96-well plate and treated with various concentrations of test compounds for 2 h. After incubation, cells were collected by trypsinization and suspended in 150 μl of DMEM-10% FBS. A total of 10^4 cells were analyzed using a FACScan (Becton Dickinson). GFP fluorescence was monitored by using an excitation filter at 488 nm and emission was measured with a 530 nm filter.

XIAP = biological target: T2, XIAP (Homo sapiens, UniProt P98170); test: Caspase-3 derepression assay; type: biochemical; conditions: MDA-MB-231 hypotonic lysate activated with cytochrome c and dATP; zDEVD-R110(2) substrate
T2 construct: endogenous in cells; host or cells: MDA-MB-231 (ATCC), soluble hypotonic lysate
T2 sequence (P98170 whole entry): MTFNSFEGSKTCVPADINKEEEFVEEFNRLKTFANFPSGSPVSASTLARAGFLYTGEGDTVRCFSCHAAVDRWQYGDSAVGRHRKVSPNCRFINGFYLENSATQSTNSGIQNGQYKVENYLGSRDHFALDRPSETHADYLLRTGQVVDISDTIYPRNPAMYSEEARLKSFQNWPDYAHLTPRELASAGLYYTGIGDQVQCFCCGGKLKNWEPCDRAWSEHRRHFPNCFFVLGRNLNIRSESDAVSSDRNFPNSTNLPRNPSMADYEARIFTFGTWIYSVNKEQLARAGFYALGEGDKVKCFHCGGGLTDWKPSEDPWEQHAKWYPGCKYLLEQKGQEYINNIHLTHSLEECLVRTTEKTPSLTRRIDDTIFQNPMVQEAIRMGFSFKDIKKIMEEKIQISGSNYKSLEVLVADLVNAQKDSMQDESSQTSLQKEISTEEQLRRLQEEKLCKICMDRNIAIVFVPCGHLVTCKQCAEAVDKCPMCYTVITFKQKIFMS
Protocol: Cell pellet was washed one time by resuspending in 5 mL hypotonic lysis buffer (20 mM HEPES, pH7.5, 10 mM KCl, 1.5 mM MgCl2, 1.0 mM EDTA, 1.0 mM DTT) and recollected by centrifugation. Pellet was next resuspended in 1 volume of hypotonic lysis buffer supplemented with a complete protease inhibitor tablet (Roche) and allowed to swell on ice for 30 minutes. Cells were disrupted by approximately 50 passages through a 27 gauge needle. Lysis was monitored by light microscopy. Lysate was centrifuged at 12000×g for 10 minutes at 4° C. to remove membrane fraction, unlysed cells and debris. The soluble fraction was collected for protein concentration determination and subsequent assay analysis.
The hypotonic lysate (25 μg protein), 50 μg/mL cytochrome c and 10 mM dATP were combined in a microcentrifuge tube to a final volume of 9 μl in hypotonic lysis buffer followed by addition of test compound and incubated for 30 minutes at room temp. Following incubation 50 μl of hypotonic lysis buffer containing 5 μM of pro-fluorescent rhodamine-110(2) based caspase-3 substrate zDEVD-R110(2) was added and fluorescence intensity was monitored over time. Activation of the lysate by addition of cytochrome c and dATP results in apoptosome formation and subsequent activation of caspases-9 and -3.

[1] = test system: SKOV-3 ovarian tumor cell; test: SKOV-3 cytotoxicity (MTT assay); type: cell-based; conditions: Homo sapiens, SK-OV-3 cells, 72 hrs, concentration giving 50% cell survival
Protocol: SKOV-3 ovarian tumor cell cytotoxicity data were generated substantially as follows. The MTT (3-(4,5-Dimethylthiazol-2-yl)-2,5-diphenyltetrazolium bromide) assay is an example of an assay that has been used for measuring cell growth as previously described (Hansen, M. B., Nielsen, S. E., and Berg, K. (1989) J. Immunol Methods 119, 203-210) and incorporated herein by reference in its entirety. Briefly, SK-OV-3 cells were seeded in 96-well plates in McCoy's medium containing 10% fetal bovine serum albumin (5,000 per well) and incubated overnight at 37° C. The next day, test compounds were added at various concentrations (0.003-10 μM) and the plates were incubated at 37° C. for an additional 72 hrs. This incubation time was optimal for measuring inhibitory effects of different analogs. Fifty microliters of 5 mg/mL MTT reagent to each well was added and the plates were incubated at 37° C. for 3 hours. At the end of the incubation period, 50 microliters of DMSO was added to each well to dissolve cells and the optical density (OD) of the wells was measured using a microplate reader (Victor^2 1420, Wallac, Finland) at 535 nm. Cell survival (CS) was calculated by the following equation: CS=(OD treated well/mean OD control wells)×100%
The CC50, defined as the drug concentration that results in 50% CS, was derived by calculating the point where the dose-response curve crosses the 50% CS point using GraphPad Prism.

cIAP-2 = biological target: T3, cIAP-2 (Homo sapiens, UniProt Q13489); test: cIAP degradation assay (GFP-cIAP-2); type: cell-based; conditions: A375Gc2 cells, 2 h treatment, 50% of GFP signal inhibited (FACS); read-out: GFP-cIAP-2 IC50
T3 construct: expressed in transfected cells; host or cells: A375 (A375Gc2)
T3 sequence (Q13489 whole entry, species assumed): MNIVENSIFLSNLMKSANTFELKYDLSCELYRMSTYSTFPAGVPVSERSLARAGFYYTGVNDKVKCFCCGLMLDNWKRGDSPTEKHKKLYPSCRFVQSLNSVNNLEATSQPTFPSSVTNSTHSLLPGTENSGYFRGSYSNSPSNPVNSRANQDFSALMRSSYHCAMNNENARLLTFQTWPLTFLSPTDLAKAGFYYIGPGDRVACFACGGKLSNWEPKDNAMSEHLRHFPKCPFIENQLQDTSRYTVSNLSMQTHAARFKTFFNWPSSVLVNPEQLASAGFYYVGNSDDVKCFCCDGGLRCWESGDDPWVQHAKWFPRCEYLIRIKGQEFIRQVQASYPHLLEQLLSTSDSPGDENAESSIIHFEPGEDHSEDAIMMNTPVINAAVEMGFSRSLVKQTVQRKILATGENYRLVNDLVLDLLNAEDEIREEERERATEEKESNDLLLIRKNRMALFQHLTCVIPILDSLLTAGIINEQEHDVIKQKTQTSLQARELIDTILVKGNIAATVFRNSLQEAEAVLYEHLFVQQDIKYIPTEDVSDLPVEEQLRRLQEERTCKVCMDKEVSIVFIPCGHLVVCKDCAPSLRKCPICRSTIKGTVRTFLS
Protocol: as §1, with “The concentration inducing degradation of cIAP-1 and cIAP-2 by 50% (IC50) for various compounds was determined by monitoring the disappearance of Green Fluorescent Protein (GFP)-signal in A375 cells. Briefly,” for “Briefly,”, “filter. IC50 is defined as the concentration of drug at which 50% of GFP signal was inhibited.” for “filter.”

[2] = type: in vivo; conditions: for Mortality: 3 mg/Kg, QDx4 i.v. bolus; for Bone marrow hypocellularity of the erythroid series (anatomic pathology) / Hypercellularity of the myeloid series (anatomic pathology) / Hypertrophy and hyperplasia of megakaryocytes (anatomic pathology) / Type 2 pneumocyte hypertrophy/hyperplasia in the lungs (anatomic pathology) / Clinical signs: 1 mg/kg/day
Source text: Body weight loss (BWL), mortality and additional toxicity data were generated substantially as follows. […] Body weights were taken on day 4 and are shown as percent change from day 1.

[3] = test system: MDA-MB-231 human breast tumor cells; test: MDA-MB-231 xenograft tumor growth delay; type: in vivo, female nude mice
Protocol: MDA-MB-231 xenograft data were generated substantially as follows. MDA-MB-231 human breast tumor cells were injected into the mammary fat pad of female nude mice and dosing initiated twelve days later at an average tumor volume of approximately 148 mm^3. No tumor burden was associated with this model based on lack of weight loss or animal morbidity in control groups. Mice were injected subcutaneously into the mammary fat pad with 1×10^7 cells suspended in 200 μl of a 1:1 HBSS: Matrigel solution; injected cells were within nine passages of the original lot. Pre-study tumor volumes were recorded beginning approximately one week prior to the estimated start date. When tumors reached approximately 150 mm^3 animals are matched by tumor volume into treatment and control groups and dosing initiated (Day 0); mice are tagged and followed individually throughout the experiment. Animals were dosed by weight (0.01 mL per gram; 10 ml/Kg).
Beginning on Day 0, animals were observed daily and weighed twice weekly using a digital scale (Ohaus SP601); data including individual and mean gram weights (Mean We±SD), mean percent weight change versus Day 0 (% vD0) and mean percent weight change versus prior measurement (% vD−x) were recorded for each group and plotted at study completion.
Beginning on Day 0, tumor dimensions were measured twice weekly by digital caliper (Fowler Ultra-Cal IV) and data including individual and mean estimated tumor volumes (Mean TV±SEM) recorded for each group; tumor volume was calculated using the formula: TV=width^2×length×0.52. Individual mice reaching the designated study endpoint (an estimated tumor volume of approximately 1 cm^3) were assigned a time to endpoint (TTE) value corresponding to that day; the tumor growth delay (TGD) study was concluded once all mice reach the study endpoint or sixty days following study initiation. At study completion, TGD and % TGD are calculated using the median TTE (MTTE) value for each treatment (T) group versus control (C) by the formulas: TGD(days)=T−C and % TGD=T−C/C×100, wherein T−C is the difference between MTTE-Treatment Group and MTTE-Control. Tumored animals not reaching the designated volume endpoint by study completion are considered long-term survivors (LTS) and assigned a TTE value corresponding to the final study day; tumor-free animals are not included in TGD calculations. A Log-rank test is used to determine statistically significant differences in overall survival experience between each treated group compared to control. Individual mice reporting a tumor volume ≤50% of the Day 0 measurement for two consecutive measurements over a seven day period were considered partial responders (PR). If the PR persisted until study completion, percent tumor regression (% TR) was determined using the formula: % TR=1−Tf/Ti×100; a mean value was calculated if multiple PR mice occurred in one group. Individual mice lacking palpable tumors (<4×4 mm^2 for two consecutive measurements over a seven day period) were classified as complete responders (CR); a CR that persisted until study completion was considered a tumor-free survivor (TFS); TFS animals are excluded from TGD calculations and statistical analysis. Statistical differences in MTTE values between control and treatment groups are compared using a Log Rank test.

T1 sequence (Q13490 whole entry, species assumed): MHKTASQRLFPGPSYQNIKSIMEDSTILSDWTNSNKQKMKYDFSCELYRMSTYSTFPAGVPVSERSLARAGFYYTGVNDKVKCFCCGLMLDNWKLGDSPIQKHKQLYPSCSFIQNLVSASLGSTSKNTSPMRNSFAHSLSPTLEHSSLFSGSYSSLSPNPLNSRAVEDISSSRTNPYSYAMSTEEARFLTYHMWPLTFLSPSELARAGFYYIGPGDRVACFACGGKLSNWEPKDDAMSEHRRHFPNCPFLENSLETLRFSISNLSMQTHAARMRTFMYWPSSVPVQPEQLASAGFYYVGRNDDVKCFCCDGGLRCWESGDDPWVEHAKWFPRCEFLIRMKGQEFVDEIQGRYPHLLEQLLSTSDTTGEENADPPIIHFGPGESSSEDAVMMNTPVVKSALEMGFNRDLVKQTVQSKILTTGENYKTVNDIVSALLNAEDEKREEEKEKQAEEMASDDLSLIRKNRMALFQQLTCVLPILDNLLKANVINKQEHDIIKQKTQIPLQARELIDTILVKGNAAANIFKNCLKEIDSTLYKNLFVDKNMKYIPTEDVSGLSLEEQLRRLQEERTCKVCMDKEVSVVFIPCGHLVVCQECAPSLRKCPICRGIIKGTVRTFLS

SMILES	DC50 (cIAP-1) [nM]	IC50 Ratio cIAP-2/cIAP-1 (cIAP-1)	IC50 (XIAP) [nM]	CC50 [1] [nM]	DC50 (cIAP-2) [nM]	Mortality ([2]; rat)	Bone marrow hypocellularity of the erythroid series (anatomic pathology) ([2]; rat, in vivo)	Hypercellularity of the myeloid series (anatomic pathology) ([2]; rat, in vivo)	Hypertrophy and hyperplasia of megakaryocytes (anatomic pathology) ([2]; rat, in vivo)	Type 2 pneumocyte hypertrophy/hyperplasia in the lungs (anatomic pathology) ([2]; rat, in vivo)	Clinical signs ([2]; rat, in vivo, iv)	other results
CN[C@@H](C)C(=O)N[C@H](C(=O)N1C[C@@H](O)C[C@H]1Cc1c(-c2[nH]c3cc(F)ccc3c2C[C@@H]2C[C@H](O)CN2C(=O)[C@@H](NC(=O)[C@H](C)NC)C(C)C)[nH]c2cc(F)ccc12)C(C)C [Compound 2]	4	1.8	13.4	0.5	7	–	–	–	–	–	–	–
CN[C@@H](C)C(=O)N[C@H](C(=O)N1C[C@@H](O)C[C@H]1Cc1c(-c2[nH]c3cc(F)ccc3c2C[C@@H]2C[C@H](O)CN2C(=O)[C@@H](NC(=O)[C@H](C)NC)[C@@H](C)O)[nH]c2cc(F)ccc12)[C@@H](C)O [Compound 3]	328	2.1	0.2	13	674	–	–	–	–	–	–	–
CN[C@@H](C)C(=O)N[C@H](C(=O)N1C[C@@H](O)C[C@H]1Cc1c(-c2[nH]c3cc(F)ccc3c2C[C@@H]2C[C@H](O)CN2C(=O)[C@@H](NC(=O)[C@H](C)NC)[C@H](C)O)[nH]c2cc(F)ccc12)[C@H](C)O [Compound 4]	464	1.3	0.35	2	604	caused the animals to die	marked to severe	mild to moderate	mild to moderate	mild to moderate	lethargy, increased/irregular respiration and increased heart rate	–
CN[C@@H](C)C(=O)N[C@H](C(=O)N1C[C@@H](O)C[C@H]1Cc1c(-c2[nH]c3cc(F)ccc3c2C[C@@H]2C[C@H](O)CN2C(=O)[C@@H](NC(=O)[C@H](C)NC)[C@@H](C)OC)[nH]c2cc(F)ccc12)[C@@H](C)OC [Compound 5]	10	3.7	0.36	0.13	37	caused the animals to die	marked to severe	mild to moderate	mild to moderate	mild to moderate	lethargy, increased/irregular respiration and increased heart rate	Additional clinical observations ([2]; rat, in vivo, 1 mg/kg): dehydration, ungroomed appearance, chromorhinorrhea, alopecia (head), and excessive scratching; Long-term survivors ([3]; 15 mg/Kg i.p., q3dx5): 3/10; Partial tumor regression ([3]; 15 mg/Kg i.p., q3dx5): five; T−C value (tumor growth delay) ([3]; 15 mg/Kg i.p., q3dx5): 21 days; Weight loss compared to mice dosed with Compound 15 at 20 mg/Kg ([3]; nude mice, 15 mg/Kg i.p., q3dx5): greater
CC[C@H](NC(=O)[C@H](C)NC)C(=O)N1C[C@@H](O)C[C@H]1Cc1c(-c2[nH]c3cc(F)ccc3c2C[C@@H]2C[C@H](O)CN2C(=O)[C@H](CC)NC(=O)[C@H](C)NC)[nH]c2cc(F)ccc12 [Compound 15, N-{1S-[2R-(6,6′-Difluoro-3′-{4S-hydroxy-1-[2S-(2S-methylamino-propionylamino)-butyryl]-pyrrolidin-2R-ylmethyl}-1H,1′H-[2,2′]biindolyl-3-ylmethyl)-4S-hydroxy-pyrrolidine-1-carbonyl]-propyl}-2S-methylamino-propionamide]	–	–	–	0.14	174	–	–	–	–	–	–	Tolerability in the rat as compared to Compounds 4 and 5, dose per dose ([2]; Sprague-Dawley, in vivo, iv, 4 days): approximately 5 fold; Long-term survivors ([3]; 20 mg/Kg i.p., q3dx5): 6/10; Partial tumor regression ([3]; 20 mg/Kg i.p., q3dx5): three; T−C value (tumor growth delay) ([3]; 20 mg/Kg i.p., q3dx5): 22 days; Long-term survivors ([3]; 40 mg/Kg i.p., q3dx5): 9/10; Partial tumor regression ([3]; 40 mg/Kg i.p., q3dx5): three; T−C value (tumor growth delay) ([3]; 40 mg/Kg i.p., q3dx5): 22 days; Long-term survivors ([3]; 60 mg/Kg i.p., q3dx5): 8/10; Partial tumor regression ([3]; 60 mg/Kg i.p., q3dx5): seven; T−C value (tumor growth delay) ([3]; 60 mg/Kg i.p., q3dx5): 22 days; Minimal effective dose ([3]; MDA-MB-231 xenograft model, subsequent studies): less than 1 mg/Kg
